This is an account of results in patent US20080009418A1, “Selective Inhibitors” (Alchemia LTD., priority 2004, published 2008).

Experiment [1] addresses T1, Human δ-opioid (DOP) (Homo sapiens, UniProt P41143).
T1 construct: purchased Perkin Elmer Biosignal
Nature of the experiment: Radioligand binding, human δ-opioid (DOP) membranes, FlashPlate, [3H]-Bremazocine. As to conditions: compound at 10 μM; human δ-opioid (DOP) membranes. The essentials: (§1)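 Cloned human receptor membranes were coated onto FlashPlate wells and incubated with radioligand and compound (added from a 0.5 mM DMSO daughter plate) for 1 hour at room temperature in the dark. Scintillation counting gave percent inhibition, with DMSO defining total and reference ligand defining non-specific binding.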

For experiment [2], the target named is T2, Human κ-Opioid (KOP) (Homo sapiens, UniProt P41145).
T2 construct: purchased Perkin Elmer Biosignal
Nature of the experiment: Radioligand binding, human κ-opioid (KOP) membranes, filtration, [3H]-Diprenorphine. Conditions: compound at 10 μM; human κ-opioid (KOP) membranes. The essentials: (§2)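 Filtration binding on cloned human receptor membranes (1 Unit/well), [125I]-Substance P for NK1 and [3H]-Diprenorphine for KOP, 1 h at room temperature. Filters PEI-presoaked, washed with cold 50 mM Tris-HCl pH 7.4, counted by scintillation; percent inhibition calculated, reference ligand defining non-specific binding.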

The target of experiment [3] is T3, Human Melanocortin (MC3) (Homo sapiens, UniProt P41968).
T3 construct: purchased Perkin Elmer Biosignal
Nature of the experiment: Radioligand binding, human melanocortin MC3 membranes, FlashPlate, [125I]-NDP-αMSH. As to conditions: compound at 10 μM; human melanocortin MC3 membranes. The essentials:
as §1

The target of experiment [4] is T4, Human Melanocortin (MC4) (Homo sapiens, UniProt P32245).
T4 construct: purchased Perkin Elmer Biosignal
Nature of the experiment: Radioligand binding, human melanocortin MC4 membranes, FlashPlate, [125I]-NDP-αMSH. As to conditions: compound at 10 μM; human melanocortin MC4 membranes. A digest of the protocol:
as §1

Experiment [5] deals with T5, Human melanocortin (MC5) (Homo sapiens, UniProt P33032).
T5 construct: purchased Perkin Elmer Biosignal
Nature of the experiment: Radioligand binding, human melanocortin MC5 membranes, FlashPlate, [125I]-NDP-αMSH. Conditions: compound at 10 μM; human melanocortin MC5 membranes. A digest of the protocol: as §1

Experiment [6] has as its target T6, Human melanin-concentrating hormone (MCH1) (Homo sapiens, UniProt Q99705).
T6 construct: purchased Perkin Elmer Biosignal
The experiment in a line: Radioligand binding, human melanin-concentrating hormone MCH1 membranes, FlashPlate, [125I]-S36057. Conditions: compound at 10 μM, human MCH1 membranes. The essentials: as §1

In experiment [7] the target is T7, Human μ-opioid (MOP) (Homo sapiens, UniProt P35372).
T7 construct: purchased Perkin Elmer Biosignal
The experiment in a line: Radioligand binding, human μ-opioid (MOP) membranes, FlashPlate, [3H]-Naloxone. As to conditions: compound at 10 μM; human μ-opioid (MOP) membranes. A digest of the protocol:
as §1

Experiment [8] addresses T8, Human neurokinin (NK1) (Homo sapiens, UniProt P25103).
T8 construct: purchased Perkin Elmer Biosignal
Nature of the experiment: Radioligand binding, human neurokinin NK1 membranes, filtration, [125I]-Substance P. As to conditions: compound at 10 μM; human neurokinin NK1 membranes. A digest of the protocol: as §2

Experiment [9] concerns the target T9, Human neuropeptide Y (NPY-Y1) (Homo sapiens, UniProt P25929).
T9 construct: purchased Perkin Elmer Biosignal
T9 sequence (P25929 1-384): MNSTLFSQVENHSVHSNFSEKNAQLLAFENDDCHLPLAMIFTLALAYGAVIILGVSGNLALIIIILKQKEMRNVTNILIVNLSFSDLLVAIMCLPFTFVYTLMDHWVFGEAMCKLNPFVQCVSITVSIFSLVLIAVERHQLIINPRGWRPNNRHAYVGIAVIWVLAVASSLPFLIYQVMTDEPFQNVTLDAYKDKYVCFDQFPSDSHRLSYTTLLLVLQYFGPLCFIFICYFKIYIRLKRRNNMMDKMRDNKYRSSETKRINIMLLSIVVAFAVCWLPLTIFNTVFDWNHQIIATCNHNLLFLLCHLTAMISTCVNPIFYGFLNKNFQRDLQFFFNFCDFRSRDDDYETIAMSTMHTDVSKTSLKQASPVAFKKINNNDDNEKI
The experiment in a line: Radioligand binding, human neuropeptide Y NPY-Y1 membranes, FlashPlate, [125I]-PYY. Conditions: compound at 10 μM; human NPY-Y1 membranes. The essentials:
as §1

For experiment [10], the target named is T10, Human opioid (ORL1) (Homo sapiens, UniProt P41146).
T10 construct: purchased Perkin Elmer Biosignal
Nature of the experiment: Radioligand binding, human opioid ORL1 membranes, FlashPlate, [125I]-Nociceptin. As to conditions: compound at 10 μM; human ORL1 membranes. The essentials:
as §1

In experiment [11] the target is T11, Mouse urotensin (mUR2) (Mus musculus, UniProt Q8VIH9).
T11 construct: purchased Perkin Elmer Biosignal
T11 sequence (Q8VIH9 1-385): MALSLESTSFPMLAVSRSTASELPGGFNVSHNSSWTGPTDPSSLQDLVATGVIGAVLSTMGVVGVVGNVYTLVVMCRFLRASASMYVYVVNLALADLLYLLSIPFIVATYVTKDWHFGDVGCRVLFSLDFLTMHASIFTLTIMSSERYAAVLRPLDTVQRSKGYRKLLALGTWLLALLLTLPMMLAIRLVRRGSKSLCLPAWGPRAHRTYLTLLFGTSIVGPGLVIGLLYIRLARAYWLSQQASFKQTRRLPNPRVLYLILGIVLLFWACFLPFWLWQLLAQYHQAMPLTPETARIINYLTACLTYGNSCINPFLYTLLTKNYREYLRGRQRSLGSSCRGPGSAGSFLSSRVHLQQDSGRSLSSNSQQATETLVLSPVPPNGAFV
Nature of the experiment: Radioligand binding, mouse urotensin mUR2 membranes, FlashPlate, [125I]-Urotensin II. As to conditions: compound at 10 μM; mouse urotensin mUR2 membranes. A digest of the protocol: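 Cloned mouse urotensin (mUR2) receptor membranes from Perkin Elmer Biosignal were immobilized in FlashPlate microplates using a proprietary coating. Each well got 19.5 μl buffer, then 0.5 μl of DMSO, reference ligand, or compound. Adding 5 μl of [125I]-Urotensin II, diluted to 5× final concentration in binding buffer, started binding. Plates were sealed with TopSeal-A and incubated 1 hour at room temperature in the dark. Wells were counted for 30 seconds each on a TopCount after a 60-second delay, and percentage inhibition was calculated.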

T7 sequence (P35372 whole entry): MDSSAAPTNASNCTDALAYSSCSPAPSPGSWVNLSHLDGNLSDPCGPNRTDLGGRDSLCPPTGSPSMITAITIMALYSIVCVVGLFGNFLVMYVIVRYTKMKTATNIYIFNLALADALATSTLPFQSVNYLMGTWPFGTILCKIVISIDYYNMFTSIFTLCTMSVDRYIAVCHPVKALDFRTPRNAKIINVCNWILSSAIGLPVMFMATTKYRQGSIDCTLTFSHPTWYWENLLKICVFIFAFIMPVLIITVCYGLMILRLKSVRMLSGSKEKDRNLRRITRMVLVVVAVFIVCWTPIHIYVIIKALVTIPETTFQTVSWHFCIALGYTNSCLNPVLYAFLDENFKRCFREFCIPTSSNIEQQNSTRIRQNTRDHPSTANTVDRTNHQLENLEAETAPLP
T1 sequence (P41143 whole entry): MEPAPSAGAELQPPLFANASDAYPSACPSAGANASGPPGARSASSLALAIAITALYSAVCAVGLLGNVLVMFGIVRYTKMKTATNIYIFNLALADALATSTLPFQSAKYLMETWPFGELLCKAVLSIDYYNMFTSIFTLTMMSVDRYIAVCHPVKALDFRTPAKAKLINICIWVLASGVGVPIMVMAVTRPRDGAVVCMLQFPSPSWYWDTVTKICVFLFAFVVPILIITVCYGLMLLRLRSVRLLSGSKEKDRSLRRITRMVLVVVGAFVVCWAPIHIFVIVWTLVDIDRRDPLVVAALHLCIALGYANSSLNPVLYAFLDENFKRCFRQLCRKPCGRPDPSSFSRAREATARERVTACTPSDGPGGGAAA
T3 sequence (P41968 whole entry): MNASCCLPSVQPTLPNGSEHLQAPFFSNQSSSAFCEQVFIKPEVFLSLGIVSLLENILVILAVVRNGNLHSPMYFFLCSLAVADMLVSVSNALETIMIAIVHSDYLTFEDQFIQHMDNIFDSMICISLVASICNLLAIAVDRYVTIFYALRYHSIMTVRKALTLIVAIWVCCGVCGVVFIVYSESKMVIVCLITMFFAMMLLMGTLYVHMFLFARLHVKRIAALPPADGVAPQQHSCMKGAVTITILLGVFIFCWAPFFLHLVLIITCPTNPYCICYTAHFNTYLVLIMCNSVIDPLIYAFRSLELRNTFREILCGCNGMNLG
T2 sequence (P41145 whole entry): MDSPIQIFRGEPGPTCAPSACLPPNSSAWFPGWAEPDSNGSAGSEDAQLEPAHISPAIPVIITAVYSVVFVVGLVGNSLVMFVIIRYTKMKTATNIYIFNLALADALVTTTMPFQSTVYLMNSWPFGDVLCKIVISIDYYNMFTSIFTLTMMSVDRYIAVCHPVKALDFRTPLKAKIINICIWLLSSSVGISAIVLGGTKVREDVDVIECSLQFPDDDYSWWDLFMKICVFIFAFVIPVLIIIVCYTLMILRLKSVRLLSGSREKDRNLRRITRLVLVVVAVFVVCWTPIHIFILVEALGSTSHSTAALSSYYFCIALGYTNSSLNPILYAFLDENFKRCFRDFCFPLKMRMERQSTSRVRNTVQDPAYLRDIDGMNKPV
T10 sequence (P41146 whole entry): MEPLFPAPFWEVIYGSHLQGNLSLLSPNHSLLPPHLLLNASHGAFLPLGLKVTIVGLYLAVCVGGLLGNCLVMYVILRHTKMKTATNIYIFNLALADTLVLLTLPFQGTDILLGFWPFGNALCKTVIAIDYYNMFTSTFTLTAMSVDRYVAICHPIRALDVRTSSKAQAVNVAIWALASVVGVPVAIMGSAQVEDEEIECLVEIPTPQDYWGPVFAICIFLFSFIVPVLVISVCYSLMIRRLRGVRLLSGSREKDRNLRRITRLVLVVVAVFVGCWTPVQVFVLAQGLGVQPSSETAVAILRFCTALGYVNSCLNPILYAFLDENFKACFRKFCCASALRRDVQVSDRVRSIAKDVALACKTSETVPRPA
T6 sequence (Q99705 whole entry): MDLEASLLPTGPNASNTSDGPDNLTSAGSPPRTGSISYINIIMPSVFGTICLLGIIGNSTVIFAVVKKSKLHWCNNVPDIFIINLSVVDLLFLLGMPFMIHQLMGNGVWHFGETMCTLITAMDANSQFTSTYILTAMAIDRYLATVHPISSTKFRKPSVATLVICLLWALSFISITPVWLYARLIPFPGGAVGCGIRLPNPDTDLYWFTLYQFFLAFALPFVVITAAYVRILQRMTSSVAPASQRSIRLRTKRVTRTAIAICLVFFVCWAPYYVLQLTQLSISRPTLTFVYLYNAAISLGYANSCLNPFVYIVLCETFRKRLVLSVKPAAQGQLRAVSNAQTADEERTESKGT
T8 sequence (P25103 whole entry): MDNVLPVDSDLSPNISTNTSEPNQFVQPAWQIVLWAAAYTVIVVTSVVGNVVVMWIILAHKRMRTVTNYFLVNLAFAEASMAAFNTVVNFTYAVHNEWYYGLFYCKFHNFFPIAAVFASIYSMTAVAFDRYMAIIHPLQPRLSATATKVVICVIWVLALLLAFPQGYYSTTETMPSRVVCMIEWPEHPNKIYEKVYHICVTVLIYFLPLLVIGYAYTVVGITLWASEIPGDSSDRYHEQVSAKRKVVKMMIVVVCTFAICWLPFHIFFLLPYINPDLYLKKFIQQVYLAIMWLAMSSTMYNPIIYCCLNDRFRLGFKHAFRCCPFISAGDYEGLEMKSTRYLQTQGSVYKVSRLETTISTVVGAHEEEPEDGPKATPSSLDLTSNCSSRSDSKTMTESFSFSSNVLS
T5 sequence (P33032 whole entry): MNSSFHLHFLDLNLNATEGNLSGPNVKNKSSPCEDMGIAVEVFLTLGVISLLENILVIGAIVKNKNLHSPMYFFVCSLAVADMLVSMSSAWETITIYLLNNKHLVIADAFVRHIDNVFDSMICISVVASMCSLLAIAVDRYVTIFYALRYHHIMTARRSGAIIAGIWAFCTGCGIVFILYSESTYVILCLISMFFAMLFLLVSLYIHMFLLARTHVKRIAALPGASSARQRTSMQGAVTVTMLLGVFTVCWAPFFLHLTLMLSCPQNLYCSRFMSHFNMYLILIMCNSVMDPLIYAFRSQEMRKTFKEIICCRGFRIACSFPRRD
T4 sequence (P32245 whole entry): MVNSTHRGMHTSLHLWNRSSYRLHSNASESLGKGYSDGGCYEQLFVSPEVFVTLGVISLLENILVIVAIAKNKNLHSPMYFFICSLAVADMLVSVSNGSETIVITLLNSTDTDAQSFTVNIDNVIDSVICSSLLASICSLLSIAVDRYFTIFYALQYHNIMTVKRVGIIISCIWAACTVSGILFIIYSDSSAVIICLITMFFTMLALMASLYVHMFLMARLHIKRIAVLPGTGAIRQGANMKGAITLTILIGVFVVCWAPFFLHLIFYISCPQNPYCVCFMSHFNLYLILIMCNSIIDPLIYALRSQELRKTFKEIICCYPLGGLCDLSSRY

On to `COC[C@H]1OC(OCc2ccc(-c3ccccc3)cc2)[C@H](NC(=O)CCCN)[C@@H](OCc2ccc3ccccc3c2)[C@@H]1O` (stereo partly shown) [compound 5], for which the “A1 radioligand binding inhibition” value in experiment [1] is “− (“−” indicates less than 50% inhibition at 10 μM)”. Further, the “A2 radioligand binding inhibition” value in experiment [2] was “− (“−” indicates less than 50% inhibition at 10 μM)”. In addition, in experiment [3], the “A3 radioligand binding inhibition” value was “− (“−” indicates less than 50% inhibition at 10 μM)”. In addition, the “A4 radioligand binding inhibition” value in [4] is “− (“−” indicates less than 50% inhibition at 10 μM)”. The “A5 radioligand binding inhibition” value in experiment [5] is “+ (“+” indicates greater than 50% inhibition at 10 μM)”. Besides, the “A6 radioligand binding inhibition” value in experiment [6] is “− (“−” indicates less than 50% inhibition at 10 μM)”. Besides, the “A7 radioligand binding inhibition” value in [7] is “− (“−” indicates less than 50% inhibition at 10 μM)”. Further, in experiment [8], the “A8 radioligand binding inhibition” value is “+ (“+” indicates greater than 50% inhibition at 10 μM)”. Further, the “A9 radioligand binding inhibition” value in [9] was “− (“−” indicates less than 50% inhibition at 10 μM)”. In addition, in [10], the “A10 radioligand binding inhibition” value is on record as “− (“−” indicates less than 50% inhibition at 10 μM)”. Besides, the “A11 radioligand binding inhibition” value in experiment [11] is “− (“−” indicates less than 50% inhibition at 10 μM)”.

Turning to `COC[C@H]1OC(OCc2ccc(-c3ccccc3)cc2)[C@H](NC(=O)CCCNC(=N)N)[C@@H](OCc2ccc3ccccc3c2)[C@@H]1O` (stereo partly shown) [compound 6], the “A1 radioligand binding inhibition” value in experiment [1] is on record as “− (“−” indicates less than 50% inhibition at 10 μM)”. Besides, in experiment [2], the “A2 radioligand binding inhibition” value is “+ (“+” indicates greater than 50% inhibition at 10 μM)”. The “A3 radioligand binding inhibition” value in [3] is on record as “− (“−” indicates less than 50% inhibition at 10 μM)”. Further, the “A4 radioligand binding inhibition” value in [4] is “− (“−” indicates less than 50% inhibition at 10 μM)”. In [5], the “A5 radioligand binding inhibition” value is given as “+ (“+” indicates greater than 50% inhibition at 10 μM)”. The “A6 radioligand binding inhibition” value in experiment [6] is listed as “+ (“+” indicates greater than 50% inhibition at 10 μM)”. Besides, the “A7 radioligand binding inhibition” value in experiment [7] is on record as “+ (“+” indicates greater than 50% inhibition at 10 μM)”. Further, the “A8 radioligand binding inhibition” value in experiment [8] is “+ (“+” indicates greater than 50% inhibition at 10 μM)”. Also, the “A9 radioligand binding inhibition” value in experiment [9] is “− (“−” indicates less than 50% inhibition at 10 μM)”. Further, the “A10 radioligand binding inhibition” value in experiment [10] is recorded as “− (“−” indicates less than 50% inhibition at 10 μM)”. Further, the “A11 radioligand binding inhibition” value in experiment [11] is on record as “− (“−” indicates less than 50% inhibition at 10 μM)”.

With `COC[C@H]1OC(OCc2ccc(-c3ccccc3)cc2)[C@H](NC(=O)CCNC(=N)N)[C@@H](OCc2ccccc2)[C@@H]1O` (stereo partly shown) [compound 7], in [1], the “A1 radioligand binding inhibition” value is “− (“−” indicates less than 50% inhibition at 10 μM)”. Also, in experiment [2], the “A2 radioligand binding inhibition” value is “− (“−” indicates less than 50% inhibition at 10 μM)”. Besides, the “A3 radioligand binding inhibition” value in [3] is reported as “− (“−” indicates less than 50% inhibition at 10 μM)”. In experiment [4], the “A4 radioligand binding inhibition” value is “− (“−” indicates less than 50% inhibition at 10 μM)”. Moreover, in experiment [5], the “A5 radioligand binding inhibition” value is reported as “− (“−” indicates less than 50% inhibition at 10 μM)”. Besides, the “A6 radioligand binding inhibition” value in experiment [6] is reported as “+ (“+” indicates greater than 50% inhibition at 10 μM)”. For the same molecule, the “A7 radioligand binding inhibition” value in [7] is listed as “+ (“+” indicates greater than 50% inhibition at 10 μM)”. Also, in experiment [8], the “A8 radioligand binding inhibition” value is given as “+ (“+” indicates greater than 50% inhibition at 10 μM)”. For the same molecule, in experiment [9], the “A9 radioligand binding inhibition” value is “− (“−” indicates less than 50% inhibition at 10 μM)”. Also, the “A10 radioligand binding inhibition” value in [10] was “− (“−” indicates less than 50% inhibition at 10 μM)”. Moreover, the “A11 radioligand binding inhibition” value in experiment [11] is “− (“−” indicates less than 50% inhibition at 10 μM)”.

In the case of `COC[C@H]1OC(OCc2ccc(-c3ccccc3)cc2)[C@H](NC(=O)CCCNC(=N)N)[C@@H](OCc2ccccc2)[C@@H]1O` (stereo partly shown) [compound 8], the “A1 radioligand binding inhibition” value in experiment [1] was “− (“−” indicates less than 50% inhibition at 10 μM)”. In addition, the “A2 radioligand binding inhibition” value in experiment [2] was “− (“−” indicates less than 50% inhibition at 10 μM)”. Besides, in [3], the “A3 radioligand binding inhibition” value was “− (“−” indicates less than 50% inhibition at 10 μM)”. Further, in experiment [4], the “A4 radioligand binding inhibition” value was “− (“−” indicates less than 50% inhibition at 10 μM)”. Besides, the “A5 radioligand binding inhibition” value in experiment [5] is recorded as “− (“−” indicates less than 50% inhibition at 10 μM)”. For the same molecule, the “A6 radioligand binding inhibition” value in [6] (10 µM) is “+ (“+” indicates greater than 50% inhibition at 10 μM)”. Besides, the “A7 radioligand binding inhibition” value in experiment [7] is listed as “− (“−” indicates less than 50% inhibition at 10 μM)”. In addition, the “A8 radioligand binding inhibition” value in experiment [8] is on record as “+ (“+” indicates greater than 50% inhibition at 10 μM)”. The “A9 radioligand binding inhibition” value in experiment [9] is “− (“−” indicates less than 50% inhibition at 10 μM)”. Besides, the “A10 radioligand binding inhibition” value in experiment [10] is “− (“−” indicates less than 50% inhibition at 10 μM)”. In experiment [11], the “A11 radioligand binding inhibition” value was “− (“−” indicates less than 50% inhibition at 10 μM)”.

As for `COC[C@H]1OC(OCc2ccc(-c3ccccc3)cc2)[C@H](NC(=O)CCCNC(=N)N)[C@@H](OCc2ccccc2)[C@@H]1O` (stereo partly shown) [compound 9], the “A1 radioligand binding inhibition” value in experiment [1] is listed as “− (“−” indicates less than 50% inhibition at 10 μM)”. The “A2 radioligand binding inhibition” value in experiment [2] is recorded as “− (“−” indicates less than 50% inhibition at 10 μM)”. In addition, the “A3 radioligand binding inhibition” value in experiment [3] was “− (“−” indicates less than 50% inhibition at 10 μM)”. In addition, the “A4 radioligand binding inhibition” value in experiment [4] is “− (“−” indicates less than 50% inhibition at 10 μM)”. Further, in experiment [5], the “A5 radioligand binding inhibition” value is “− (“−” indicates less than 50% inhibition at 10 μM)”. Moreover, in experiment [6] (10 µM), the “A6 radioligand binding inhibition” value is “− (“−” indicates less than 50% inhibition at 10 μM)”. Further, the “A7 radioligand binding inhibition” value in [7] is listed as “− (“−” indicates less than 50% inhibition at 10 μM)”. Besides, in experiment [8], the “A8 radioligand binding inhibition” value is “+ (“+” indicates greater than 50% inhibition at 10 μM)”. In addition, the “A9 radioligand binding inhibition” value in [9] is given as “− (“−” indicates less than 50% inhibition at 10 μM)”. For the same molecule, in experiment [10], the “A10 radioligand binding inhibition” value is on record as “− (“−” indicates less than 50% inhibition at 10 μM)”. In addition, the “A11 radioligand binding inhibition” value in experiment [11] was “− (“−” indicates less than 50% inhibition at 10 μM)”.
